What is called IC50 is the concentration at which inhibition is half-maximal. A lower IC50 goes with greater potency.

Data set [1] in a line: Cytotoxicity against human A549 cells assessed as cell viability at 1 uM by MTT assay relative to control. The data set is classed as cell-based. The conditions noted are these: read-out: Activity.
The nature of data set [2]: Cytotoxicity against human A549 cells assessed as cell viability at 10 uM by MTT assay relative to control. The data set is classed as cell-based. The conditions noted are these: read-out: Activity. In general terms: Formazan colour is commonly taken as a measure of viable cells.
The test system of data set [3] is Zika virus. The data set is described as follows: Antiviral activity against Zika virus infected in human A549 cells preincubated for 5 hrs followed by compound wash measured after 48 hrs by viral plague-forming assay. The format is functional, organism-based.
Data set [4] in a line: Cytotoxicity against human A549 cells assessed as cell viability at 100 uM by MTT assay relative to control. The data set is classed as cell-based. The conditions noted are these: read-out: Activity.
Data set [5] is described as follows: Cytotoxicity against human A549 cells assessed as cell viability at 0.1 uM by MTT assay relative to control. The data set is classed as cell-based. The conditions noted are these: read-out: Activity.
Data set [6] deals with Zika virus. The data set is described as follows: Antiviral activity against Zika virus infected in human A549 cells assessed as virus titer preincubated for 5 hrs followed by compound wash measured after 48 hrs by viral plague-forming assay. The format is functional.

Turning to `CCCn1c(=O)[nH]c2nc(-c3ccc(S(=O)(=O)N4CCN(c5ccc(Cl)cc5)CC4)cc3)[nH]c2c1=O`, the viability at 1 µM in data set [1] came to 97.4%. Moreover, the viability at 10 µM in data set [2] amounted to 86.5%. The molecule further registered an IC50 in data set [3] of 43.8 nM. In data set [4], the viability at 100 µM was determined as 35.8%. Further, the viability at 0.1 µM in data set [5] turned out to be 97.7%.
With `COCCOc1ccc(N2CCN(CCn3ncc4c3nc(N)n3nc(-c5ccco5)nc43)CC2)cc1` [PRELADENANT], the viability at 1 µM in data set [1] is 104%. Moreover, the viability at 10 µM in data set [2] was 57%. In data set [3], this molecule yielded a 50% inhibitory concentration (IC50) of 136 nM. For the same molecule, the viability at 100 µM in data set [4] worked out at 27.9%. Besides, the viability at 0.1 µM in data set [5] came to 109%. The Activity in data set [6] stood at 7 log10PFU/ml.
`C=CCSc1nsc(NC(=O)Nc2cccc(C(C)=O)c2)n1`: the viability at 1 µM in data set [1] is 105%. For the same molecule, the viability at 10 µM in data set [2] was 96.7%. Besides, in data set [3], half-maximal inhibition (IC50) required 160 nM. Besides, in data set [4], the viability at 100 µM turned out to be 21.6%. Also, the viability at 0.1 µM in data set [5] was 104%. Besides, in data set [6], the Activity is 7 log10PFU/ml.
With `O[C@H]1CC[C@H](Nc2nc(-c3ccccc3)nc3[nH]ccc23)CC1`, the viability at 1 µM in data set [1] turned out to be 111%. Besides, the viability at 10 µM in data set [2] worked out at 98.5%. Further, the IC50 in data set [3] worked out at 58.6 nM. Moreover, the viability at 100 µM in data set [4] amounted to 41.7%. The viability at 0.1 µM in data set [5] is 106%.
The matching figures for `COc1ccc([C@@H]2CNC(=O)C2)cc1OC1CCCC1` [(-)-ROLIPRAM]: 97.1%, 92.5%, 77.6 nM, 39.1% and 95.7%.
The matching figures for `Nc1nc(NCCc2ccc(O)cc2)nc2nc(-c3ccco3)nn12` [ZM-241385]: 110%, 77.8%, 1070 nM, 32.6% and 107%.
The matching figures for `C=CCSc1nsc(NC(=O)Nc2ccc(Cl)cc2C(F)(F)F)n1`: 104%, 95.8%, 0.318 nM, 43.1% and 102%.
With `COc1ccc(C2CNC(=O)C2)cc1OC1CCCC1` (stereo not drawn) [ROLIPRAM], in data set [1], the viability at 1 µM stood at 114%. Further, the viability at 10 µM in data set [2] amounted to 101%. The molecule further came in with an IC50 in data set [3] of 44.6 nM. Further, the viability at 100 µM in data set [4] came out at 43.4%. For the same molecule, the viability at 0.1 µM in data set [5] came to 107%. The Activity in data set [6] stood at 7 log10PFU/ml.
Take `CN1CCCC1=O` [METHYLPYRROLIDONE]: the viability at 1 µM in data set [1] amounted to 102%. In addition, the viability at 10 µM in data set [2] was 99.4%. Besides, the viability at 100 µM in data set [4] is 39.3%. The viability at 0.1 µM in data set [5] came out at 98.6%.
On to `COc1ccc([C@H]2CNC(=O)C2)cc1OC1CCCC1` [S-ROLIPRAM], for which, in data set [1], the viability at 1 µM was 105%. The viability at 10 µM in data set [2] stood at 97%. In data set [3], this molecule showed an IC50 of 25.8 nM. For the same molecule, in data set [4], the viability at 100 µM is 40.9%. Further, the viability at 0.1 µM in data set [5] was 96.5%.
The matching figures for `CCCOc1cc([C@]2(C)CNC(=O)O2)ccc1OC` [DAXALIPRAM]: 106%, 95.3%, 769 nM, 41.8% and 101%.
The matching figures for `C=CCSc1nsc(NC(=O)Nc2ccc(Cl)cc2)n1`: 98.1%, 51.2%, 0.189 nM, 15.1% and 100%.
For `C#CCSc1nsc(NC(=O)Nc2ccccc2Cl)n1` the same measures were 96.2%, 89.9%, 1680 nM, 21.4% and 98.1%.
With `C#CCSc1nsc(NC(=O)Nc2ccc(Cl)c(C(F)(F)F)c2)n1`, in data set [1], the viability at 1 µM was found to be 97.8%. For the same molecule, the viability at 10 µM in data set [2] is 74.1%. Besides, in data set [3], 26.9 nM corresponded to half-maximal inhibition (IC50). Besides, the viability at 100 µM in data set [4] is 18%. Moreover, the viability at 0.1 µM in data set [5] came out at 99.8%.
As to `C=CCSc1nsc(NC(=O)Nc2ccc(F)cc2F)n1`, in data set [1], the viability at 1 µM worked out at 100%. Further, the viability at 10 µM in data set [2] came to 90.2%. Further, half-maximal inhibition in data set [3] (IC50) was put at 4480 nM. Also, in data set [4], the viability at 100 µM was found to be 31.3%. In addition, the viability at 0.1 µM in data set [5] was determined as 100%.
As to `COc1ccc(CCCn2ncc3c2nc(N)n2nc(-c4ccco4)nc32)cc1`, the viability at 1 µM in data set [1] worked out at 106%. Also, the viability at 10 µM in data set [2] came to 77.2%. This molecule also yielded an IC50 in data set [3] of 3060 nM. Also, the viability at 100 µM in data set [4] turned out to be 41.6%. Further, in data set [5], the viability at 0.1 µM is 94.7%.
On to `COc1ccc(C2CNC(=O)NC2)cc1O[C@@H]1C[C@H]2CC[C@H]1C2`, for which the viability at 1 µM in data set [1] was 104%. Also, in data set [2], the viability at 10 µM worked out at 94.3%. This molecule also had a half-maximal inhibitory concentration (IC50) in data set [3] of 182 nM. Further, in data set [4], the viability at 100 µM amounted to 43.3%. In addition, the viability at 0.1 µM in data set [5] came out at 96.6%.
Consider `O=C(Nc1nc(SCCOc2ccccc2)ns1)Nc1ccc(F)cc1F`, for which the viability at 1 µM in data set [1] came to 102%. Further, the viability at 10 µM in data set [2] worked out at 95.5%. Further, in data set [3], the IC50 turned out to be 4940 nM. Further, in data set [4], the viability at 100 µM turned out to be 27.3%. For the same molecule, the viability at 0.1 µM in data set [5] amounted to 96.2%.
`O=S(=O)(c1c(F)c(F)c(F)c(F)c1F)N1CCN(c2ccccc2)CC1`: in data set [1], the viability at 1 µM turned out to be 103%. Besides, the viability at 10 µM in data set [2] amounted to 77%. In addition, 0.87 nM corresponded to half-maximal inhibition in data set [3] (IC50). For the same molecule, in data set [4], the viability at 100 µM was 35%. In data set [5], the viability at 0.1 µM is 93.1%. Also, the Activity in data set [6] stood at 7 log10PFU/ml.

These data come from ChEMBL document CHEMBL4184095, “Identification of novel small-molecule inhibitors of Zika virus infection” (Bioorg Med Chem Lett, 2018).
